In patent US6359001B1, “Use of α-methyl-p-tyrosine to inhibit melanin production in iris melanocytes” (Pharmacia AB, priority 1997, dated 2002):
Like-named read-outs stand apart in the source and are kept apart here. Marks after values point to notes of the source that are not given here.

Experiments:
monkey iris = conditions: cited from earlier work
iris = conditions: cited from earlier work
uveal melanocytes [1] = assay: Melanin content of cultured uveal (iris) melanocytes; format: cell-based; conditions: for Melanin content: growth stage
Description: (§1) Uveal melanocytes were isolated and cultured from adult donor eyes. The iris was excised and placed in a dish with the posterior surface upward. The iris pigment epithelium was separated from the stroma after immersion in 0.25% trypsin solution (Gibco, USA) at 37° C. for 2 hour. The remaining iris stroma was placed in a 0.25% trypsin solution at 4° C. for 18 hours, followed by incubation at 37° C. for 1 hour. The isolated cells were collected. The trypsin solution was replaced by collagenase solution (400 U/ml, in F-12 medium, Sigma, USA) and incubated at 37° C. The collagenase solution was replaced, and the cells were collected, centrifuged, resuspended, and plated each hour for 3 hours.
(§2) The isolated uveal melanocytes were cultured in Falcon culture dishes (Becton Dickinson, USA) with FIC medium, which consisted of F-12 medium supplemented with 10% fetal bovine serum, 2 mM glutamine (all from Gibco), 10 ng/ml cholera toxin, 0.1 mM isobutylmethylxanthine, 50 μg/ml gentamicin (all from Sigma), and 20 ng/ml basic fibroblast growth factor (Promega, USA). The culture dishes were incubated in a humidified 5% CO2 atmosphere. The medium was changed three times a week. Geneticin (Sigma, USA); a cytotoxic agent, was added (100 μg/ml) for 3 to 7 days when necessary.
(§3) The 8 cell strains of uveal melanocytes used in the present study were isolated from donors with different iris color (brown and brown-blue).
(§4) Cultured uveal melanocytes were detached by trypsin-EDTA solution and counted in a hemocytometer, the cell suspensions were centrifuged, and the pellet was dissolved in 1 N NaOH. Melanin concentration was determined by measurement of optical density at 475 nm and compared with a standard curve obtained using synthetic melanin (Sigma). Melanin content was expressed as ng/cell.

uveal melanocytes [2] = assay: Melanin production of cultured uveal (iris) melanocytes; format: cell-based; conditions: for Melanin production: growth stage; for Melanin production by iris melanocytes (summary in words): in vitro experiments
Description: as §1, §2, §3, §4
Melanin production was calculated by determining the melanin content and the cell counts at the beginning and the end of each generation by the following formula: […]
where C0 and Ct represent the melanin content per cell at times 0 and time t, respectively; P is the population increase during time t, D is the doubling time of the uveal melanocytes; and Cp is melanin production per cell per day during time t.

tyrosinase = biological target: T1, tyrosinase (Homo sapiens, UniProt P14679); assay: Tyrosinase activity in uveal melanocyte cell strains (adapted Pomerantz method, 3H2O release); format: cell-based; conditions: for Tyrosinase activity: growth stage
T1 construct: endogenous in cells; host or cells: primary uveal (iris) melanocyte cell strains from donor eyes (brown and brown-blue irises)
T1 sequence (P14679 19-529): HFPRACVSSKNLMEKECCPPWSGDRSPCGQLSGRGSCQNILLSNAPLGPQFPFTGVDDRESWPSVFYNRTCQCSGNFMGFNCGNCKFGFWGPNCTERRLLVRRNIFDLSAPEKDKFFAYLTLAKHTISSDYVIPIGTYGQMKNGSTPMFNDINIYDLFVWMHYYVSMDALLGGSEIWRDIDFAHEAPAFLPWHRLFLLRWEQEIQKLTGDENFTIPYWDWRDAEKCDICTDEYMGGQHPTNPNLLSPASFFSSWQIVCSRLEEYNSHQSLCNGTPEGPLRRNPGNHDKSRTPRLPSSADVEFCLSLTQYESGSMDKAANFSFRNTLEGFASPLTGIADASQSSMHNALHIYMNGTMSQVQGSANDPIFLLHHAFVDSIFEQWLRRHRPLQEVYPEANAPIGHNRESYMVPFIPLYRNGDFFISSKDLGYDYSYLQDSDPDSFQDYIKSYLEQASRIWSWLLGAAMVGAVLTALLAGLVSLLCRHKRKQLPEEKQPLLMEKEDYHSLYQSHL
Description: as §1, §2, §3
Tyrosinase activity was evaluated in nine cell strains using an adaptation of the Pomerantz method, which is based on the measurement of ^3H2O released by the enzymatic hydroxylation of tyrosine.

[3] = clinical concentrations for the treatment of pheocromocytoma; cited from earlier work
[4] = 3 cell strains (brown-blue), latanoprost 10^−5 M, no α-methyl-p-tyrosine
[5] = 3 cell strains (brown-blue), latanoprost 10^−6 M, no α-methyl-p-tyrosine
[6] = 3 cell strains (brown-blue), latanoprost 10^−7 M, no α-methyl-p-tyrosine
[7] = 3 cell strains (brown-blue), latanoprost 10^−8 M, no α-methyl-p-tyrosine
[8] = 5 cell strains (brown), latanoprost 10^−5 M, no α-methyl-p-tyrosine
[9] = 5 cell strains (brown), latanoprost 10^−6 M, no α-methyl-p-tyrosine
[10] = 5 cell strains (brown), latanoprost 10^−7 M, no α-methyl-p-tyrosine
[11] = 5 cell strains (brown), latanoprost 10^−8 M, no α-methyl-p-tyrosine
[12] = brown and brown-blue iris strains, latanoprost at the highest molar concentrations
[13] = 3 cell strains (brown-blue), α-methyl-p-tyrosine 10^−5, no latanoprost
[14] = 3 cell strains (brown-blue), α-methyl-p-tyrosine 10^−5 with latanoprost 10^−5 M
[15] = 3 cell strains (brown-blue), α-methyl-p-tyrosine 10^−5 with latanoprost 10^−6 M
[16] = 3 cell strains (brown-blue), α-methyl-p-tyrosine 10^−5 with latanoprost 10^−7 M
[17] = 3 cell strains (brown-blue), α-methyl-p-tyrosine 10^−5 with latanoprost 10^−8 M
[18] = 5 cell strains (brown), α-methyl-p-tyrosine 10^−5, no latanoprost
[19] = 5 cell strains (brown), α-methyl-p-tyrosine 10^−5 with latanoprost 10^−5 M
[20] = 5 cell strains (brown), α-methyl-p-tyrosine 10^−5 with latanoprost 10^−6 M
[21] = 5 cell strains (brown), α-methyl-p-tyrosine 10^−5 with latanoprost 10^−7 M
[22] = 5 cell strains (brown), α-methyl-p-tyrosine 10^−5 with latanoprost 10^−8 M
[23] = α-methyl-p-tyrosine 10^−5 M added with latanoprost 10^−7 to 10^−5 M, brown and brown-blue irises

CCCCC[C@H](O)/C=C/[C@H]1[C@H](O)CC(=O)[C@@H]1C/C=C\CCCC(=O)O [PGE2]
Pigmentation of the monkey iris (monkey iris; chronic treatment): increased pigmentation

CCCCC[C@H](O)/C=C/[C@@H]1[C@@H](C/C=C\CCCC(=O)O)[C@@H](O)C[C@H]1O [PGF2α]
Pigmentation of the monkey iris (monkey iris; monkey, in vivo): increased pigmentation

CCCCCCCC(=O)CC[C@@H]1[C@@H](C/C=C\CCCC(=O)OC(C)C)[C@@H](O)C[C@H]1O [isopropyl unoprostone, 13,14-dihydro-15-keto-20-ethyl-PGF2α isopropylester]
Iris colour change in patients (iris; human, in vivo): darkening of the iris

CC(C)OC(=O)CCC/C=C\C[C@@H]1[C@@H](CC[C@@H](O)CCc2ccccc2)[C@H](O)C[C@@H]1O [latanoprost, 13,14-dihydro-17-phenyl-18,19,20-tri-nor-PGF2αisopropyl ester]
Iris colour change in patients (iris; chronic therapy, sometimes noted): darkening of the iris | Pigmentation of the monkey iris (monkey iris; chronic treatment): increased pigmentation | Melanin content (uveal melanocytes [1]; [4]): 0.0151* ng/cell | Melanin content (uveal melanocytes [1]; [5]): 0.0149* ng/cell | Melanin content (uveal melanocytes [1]; [6]): 0.0142* ng/cell | Melanin content (uveal melanocytes [1]; [7]): 0.0127 ng/cell | Melanin content (uveal melanocytes [1]; [8]): 0.0149* ng/cell | Melanin content (uveal melanocytes [1]; [9]): 0.0161* ng/cell | Melanin content (uveal melanocytes [1]; [10]): 0.0151 ng/cell | Melanin content (uveal melanocytes [1]; [11]): 0.0141 ng/cell | Melanin content (in words) (uveal melanocytes [1]; [12]): increased | Melanin production (uveal melanocytes [2]; [4]): 0.0067* ng/cell/day | Melanin production (uveal melanocytes [2]; [5]): 0.0056* ng/cell/day | Melanin production (uveal melanocytes [2]; [6]): 0.0046* ng/cell/day | Melanin production (uveal melanocytes [2]; [7]): 0.0038 ng/cell/day | Melanin production (uveal melanocytes [2]; [8]): 0.0047* ng/cell/day | Melanin production (uveal melanocytes [2]; [9]): 0.0036 ng/cell/day | Melanin production (uveal melanocytes [2]; [10]): 0.0046* ng/cell/day | Melanin production (uveal melanocytes [2]; [11]): 0.0038 ng/cell/day | Melanin production (in words) (uveal melanocytes [2]; [12]): increased | Tyrosinase activity (tyrosinase; [4]): 62.7* units | Tyrosinase activity (tyrosinase; [5]): 52.5* units | Tyrosinase activity (tyrosinase; [6]): 48.1* units | Tyrosinase activity (tyrosinase; [7]): 33.7 units | Tyrosinase activity (tyrosinase; [8]): 63.1* units | Tyrosinase activity (tyrosinase; [9]): 42.5 units | Tyrosinase activity (tyrosinase; [10]): 38.3 units | Tyrosinase activity (tyrosinase; [11]): 36.7 units | Tyrosinase activity (in words) (tyrosinase; [12]): increased

CC(N)(Cc1ccc(O)cc1)C(=O)O (stereo not drawn) [α-methyl-p-tyrosine, α-methyl-para-tyrosine]
Melanin content (uveal melanocytes [1]; [13]): 0.0122 ng/cell | Melanin content (uveal melanocytes [1]; [14]): 0.0128 ng/cell | Melanin content (uveal melanocytes [1]; [15]): 0.0125 ng/cell | Melanin content (uveal melanocytes [1]; [16]): 0.0123 ng/cell | Melanin content (uveal melanocytes [1]; [17]): 0.0119 ng/cell | Melanin content (uveal melanocytes [1]; [18]): 0.0133 ng/cell | Melanin content (uveal melanocytes [1]; [19]): 0.0131 ng/cell | Melanin content (uveal melanocytes [1]; [20]): 0.0137 ng/cell | Melanin content (uveal melanocytes [1]; [21]): 0.0136 ng/cell | Melanin content (uveal melanocytes [1]; [22]): 0.0135 ng/cell | Melanin content (in words) (uveal melanocytes [1]; [23]): significant decrease | Catecholamine concentration in the body [3]: markedly reduced | Melanin production (uveal melanocytes [2]; [13]): 0.0023 ng/cell/day | Melanin production (uveal melanocytes [2]; [14]): 0.0031 ng/cell/day | Melanin production (uveal melanocytes [2]; [15]): 0.0029 ng/cell/day | Melanin production (uveal melanocytes [2]; [16]): 0.0029 ng/cell/day | Melanin production (uveal melanocytes [2]; [17]): 0.0025 ng/cell/day | Melanin production (uveal melanocytes [2]; [18]): 0.0033 ng/cell/day | Melanin production (uveal melanocytes [2]; [19]): 0.0031 ng/cell/day | Melanin production (uveal melanocytes [2]; [20]): 0.0029 ng/cell/day | Melanin production (uveal melanocytes [2]; [21]): 0.0039 ng/cell/day | Melanin production (uveal melanocytes [2]; [22]): 0.0035 ng/cell/day | Melanin production by iris melanocytes (summary in words) (uveal melanocytes [2]): inhibited | Melanin production by iris melanocytes (summary in words) (uveal melanocytes [2]; listed as α-methyl-para-tyrosine): significantly reduced | Melanin production (in words) (uveal melanocytes [2]; [23]): significant decrease | Tyrosinase activity (tyrosinase; [13]): 32.4 units | Tyrosinase activity (tyrosinase; [14]): 39.5 units | Tyrosinase activity (tyrosinase; [15]): 34.6 units | Tyrosinase activity (tyrosinase; [16]): 31.7 units | Tyrosinase activity (tyrosinase; [17]): 34.6 units | Tyrosinase activity (tyrosinase; [18]): 33.6 units | Tyrosinase activity (tyrosinase; [19]): 31.5 units | Tyrosinase activity (tyrosinase; [20]): 34.6 units | Tyrosinase activity (tyrosinase; [21]): 38.7 units | Tyrosinase activity (tyrosinase; [22]): 35.5 units | Tyrosinase activity (in words) (tyrosinase; [23]): significant decrease
